In PubChem BioAssay (NCI):
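The compound was tested at five concentrations on cells cultured in 96-well plates, with a 48-hour exposure period. At the GI50, growth is halved. At the TGI there is no net growth.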

Legend:
Assay in all cases: inhibition of tumour cell growth, NCI panel, 48 h
SN12C renal = tested on: SN12C renal
SF-539 CNS = tested on: SF-539 CNS
HOP-92 NSCLC = tested on: HOP-92 NSCLC
CAKI-1 renal = tested on: CAKI-1 renal
HCC-2998 colon = tested on: HCC-2998 colon
SK-MEL-28 melanoma = tested on: SK-MEL-28 melanoma
M14 melanoma = tested on: M14 melanoma
HCT-15 colon = tested on: HCT-15 colon
OVCAR-5 ovarian = tested on: OVCAR-5 ovarian
HL-60(TB) leukemia = tested on: HL-60(TB) leukemia

Compound | TGI (SN12C renal) [µM] | TGI (SF-539 CNS) [µM] | TGI (HOP-92 NSCLC) [µM] | TGI (CAKI-1 renal) [µM] | TGI (HCC-2998 colon) [µM] | TGI (SK-MEL-28 melanoma) [µM] | TGI (M14 melanoma) [µM] | TGI (HCT-15 colon) [µM] | TGI (OVCAR-5 ovarian) [µM] | TGI (HL-60(TB) leukemia) [µM] | GI50 (SN12C renal) [µM] | GI50 (SF-539 CNS) [µM] | GI50 (HOP-92 NSCLC) [µM] | GI50 (CAKI-1 renal) [µM] | GI50 (HCC-2998 colon) [µM] | GI50 (SK-MEL-28 melanoma) [µM] | GI50 (M14 melanoma) [µM] | GI50 (HCT-15 colon) [µM] | GI50 (OVCAR-5 ovarian) [µM] | GI50 (HL-60(TB) leukemia) [µM]
O=C(O)C1OC(n2cc(F)c(=O)[nH]c2=O)CC1O (stereo not given) | > 100 | 26.2 | > 51.4 | > 100 | > 77.4 | > 63.1 | > 100 | > 100 | > 100 | > 100 |  |  |  |  |  |  |  |  |  | 
NCCCCN(CCCN)/[N+]([O-])=N\O | > 100 | > 100 | > 100 | > 100 | > 100 | > 100 | > 100 | > 100 | > 100 | > 100 |  |  |  |  |  |  |  |  |  | 
COc1nc2ccccc2cc1-c1nc2c(cnn2-c2ccc(Br)cc2)c(=O)[nH]1 | > 50 | 1.63 | > 28.3 | > 50 | > 50 | > 50 | 2.33 | > 50 | > 50 | 0.0815 | 0.0739 | 0.0194 | 0.127 | 0.0196 | 0.587 | 0.361 | 0.0204 | 0.0261 | 0.798 | 0.0158
C[C@@H]1CC(=O)C2CCCC1C2=O (stereo not given in full) | > 100 | > 100 | > 100 | > 100 | > 100 | > 100 | > 100 | > 100 | > 100 | > 100 |  |  |  |  |  |  |  |  |  | 
COc1cc2c(cc1OC)C(CC(=O)NN=C(C)C)NCC2 (stereo not given) | > 100 | > 100 | > 100 | > 100 | > 100 | > 100 | > 100 | > 100 | > 100 | > 100 |  |  |  |  |  |  |  |  |  | 
CC(=O)[O-].CCN(CC)c1ccc(C=NCCN=Cc2ccc(N(CC)CC)cc2[O-])c([O-])c1.[Mn+3] | 48.8 | 37.4 | 93.9 | > 100 | 35.9 | 37.8 | 35.5 | > 100 | 41 | 38.3 | 20.9 | 20.9 | 38.3 | > 100 | 19.7 | 19.2 | 19.2 | > 100 | 21.3 | 17.6
CN1CCN(CCCOc2ccc3nc(Nc4ccc(Cl)c(C(F)(F)F)c4)ccc3c2)CC1 | 30.2 | 33.3 | 18.8 | 28.4 | 30.4 | 29.2 | 26.1 | 13.3 | 35.4 | 31.1 | 13.8 | 13.8 | 5.46 | 14.9 | 14.8 | 13.8 | 12.7 | 3.66 | 17 | 13.9
CC(C)C(Nc1c2ccccc2nc2ccccc12)C(=O)O (stereo not given) | > 100 | > 100 | > 100 | > 100 | > 100 | > 100 | > 100 | > 100 | > 100 | > 100 |  |  |  |  |  |  |  |  |  | 
